Experimental data published in patent US10336732B2, “1-heterocyclyl isochromanyl compounds and analogs for treating CNS disorders” (Sunovion Pharmaceuticals Inc., priority 2015, dated 2019).

What was measured:
α2 (non-selective) = assay: In vitro radioligand binding assay, α2 (non-selective), [3H]RX 821002; set-up: concentration or dose not given beside the values; conditions: rat cerebral cortex membranes
Description: (§1) Certain compounds were tested by in vitro binding assays using standard procedures. […] These receptors and assays are well known to those skilled in the art, as exemplified by the following: Abramovitz, M. et al. (2000), Biochem. Biophys. Acta., 1483: 285-293 (EP4, IP (PGI2)); Aharony, D. et al. (1993), Mol. Pharmacol., 44: 356-363 (NK2); Ardati, A. et al. (1997), Mol. Pharmacol., 51: 816-824 (NOP (ORL1)); Bignon, E. et al. (1999), J. Pharmacol. Exp. Ther. 289: 742-751 (CCK1 (CCKA)); Bloomquist, B. T. et al. (1998), Biochem. Biophys. Res. Commun., 243: 474-479 (GAL2); Brockhaus, M. et al. (1990), Proc. Natl. Acad. Sci. U.S.A., 87: 3127-3131 (TNF-α); Brown, G. B. (1986), J. Neurosci., 6: 2064-2070 (Na+ channel (site 2)); Buchan, K. W. et al. (1994), Brit. J. Pharmacol., 112: 1251-1257 (ETA); Cesura, A. M. et al. (1990), Mol. Pharmacol., 37: 358-366 (MAO-A); Choi, D. S. et al. (1994), FEBS Lett., 352: 393-399 (5-HT2B); Clark, A. F. et al. (1996), Invest. Ophtalmol. Vis. Sci., 37: 805-813 (GR); Couvineau, A. et al. (1985), Biochem. J., 231: 139-143 (VPAC1 (VIP1)); Dorje, F. et al. (1991), J. Pharmacol. Exp. Ther., 256: 727-733 (M1, M2, M3, M4); Ferry, G. et al. (2001), Eur. J. Pharmacol., 417: 77-89 (PPARγ); Fuchs, S. et al. (2001), Mol. Med., 7: 115-124 (ETB); Fuhlendorff, J. et al. (1990), Proc. Natl. Acad. Sci. U.S.A., 87: 182-186 (Y2); Ganapathy M E. et al. (1999), J. Pharmacol. Exp. Ther., 289: 251-260 (sigma (non-selective)); Gopalakrishnan, M. et al. (1996), J. Pharmacol. Exp. Ther., 276: 289-297 (N neuronal α4β2); Greengrass, P. and Bremner, R. (1979), Eur. J. Pharmacol., 55: 323-326 (α1 (non-selective)); Grandy, D. K. et al. (1989), Proc. Natl. Acad. Sci. U.S.A., 86: 9762-9766 (D25); Guard, S. et al. (1993), Eur. J. Pharmacol., 240:177-184 (BB (non-selective)); Heuillet, E. et al. (1993), J. Neurochem., 60: 868-876 (NK1, P2X); Hope, A. G. et al. (1996), Brit. J. Pharmacol., 118: 1237-1245 (5-HT3); Hoyer, D. et al. (1985), Eur. J. Pharmacol., 118: 1-12 (5-HT1B); Hugues, M. et al. (1982), J. Biol. Chem., 257: 2762-2769 (5-HT2A, SKCa channel); Joseph, S. S. et al. (2004), Naun.-Sch. Arch. Pharm., 369: 525-532 (β2); Le, M. T. et al. (2005), Eur. J. Pharmacol., 513: 35-45 (AT1); Le Fur, G. et al. (1983), Life Sci., 33: 449-457) (BZD (peripheral); Lee, Y. M. et al. (1993), J. Biol. Chem., 268: 8164-8169 (CCK2 (CCKB)); Leurs, R. et al. (1994), Brit. J. Pharmacol., 112: 847-854 (H2); Levin, M. C. et al. (2002), J. Biol. Chem., 277: 30429-30435 (11); Lewin, A. H. et al. (1989), Mol. Pharmacol., 35: 189-194 (Cl− channel (GABA-gated)); Lukas, R. J. (1986), J. Neurochem., 46: 1936-1941 (N muscle-type); Luthin, D. R. et al. (1995), Mol. Pharmacol., 47: 307-313; (A2A); Mackenzie, R. G. et al. (1994), Eur. J. Pharmacol., 266: 79-85 (D3); Mulheron, J. G. et al. (1994), J. Biol. Chem., 269: 12954-12962 (5-HT1A); Meng, F. et al. (1993), Proc. Natl. Acad. Sci. U.S.A., 90: 9954-9958 (κ (KOP)); Monsma, F. J. et al. (1993), Mol. Pharmacol., 43: 320-327 (5-HT6); Neote, K. et al. (1993), Cell, 72: 415-425 (CCR1); Pacholczyk, T. et al. (1991), Nature, 350: 350-354 (sst (non-selective, norepinephrine transporter)); Peralta, E. G. et al. (1987), Embo. J., 6: 3923-3929 (M3); Pristupa, Z. B. et al. (1994), Mol. Pharmacol., 45: 125-135 (dopamine transporter); Pruneau, D. et al. (1998), Brit. J. Pharmacol., 125: 365-372 (B2); Rees, S. et al. (1994), FEBS Lett., 355: 242-246 (5-HT5a); Reynolds, I. J. et al. (1986), J. Pharmacol. Exp. Ther., 237: 731-738 (Ca2+ channel (L, verapamil site)); Rinaldi-Carmona, M. et al. (1996), J. Pharmacol. Exp. Ther., 278: 871-878 (CB1); Salvatore, C. A. et al. (1993), Proc. Natl. Acad. Sci. U.S.A., 90: 10365-10369 (A3); Sarau, H. M. et al. (1997), J. Pharmacol. Exp. Ther., 281: 1303-1311 (NK3); Schioth, H. B. et al. (1997), Neuropeptides, 31: 565-571 (MC4); Sharples, C. […]

α1 (non-selective) = assay: In vitro radioligand binding assay, α1 (non-selective), [3H]prazosin; set-up: concentration or dose not given beside the values; conditions: rat cerebral cortex membranes
Description: as §1

Clc1ccc2c(c1)[C@H]([C@@H]1CCCN1)OCC2 [Compound I-29, (S)-2-((R)-7-chloroisochroman-1-yl)pyrrolidine]
α2 percent inhibition of specific binding (α2 (non-selective)): 97% | α1 percent inhibition of specific binding (α1 (non-selective)): 69%

Fc1cccc2c1[C@H]([C@@H]1CCCN1)OCC2 [Compound I-1, (S)-2-((R)-8-fluoroisochroman-1-yl)pyrrolidine]
α2 percent inhibition of specific binding (α2 (non-selective)): 95% | α1 percent inhibition of specific binding (α1 (non-selective)): 55%

Fc1cccc2c1[C@H]([C@@H]1CCN1)OCC2 [Compound I-83, (S)-2-((R)-8-fluoroisochroman-1-yl)azetidine]
α2 percent inhibition of specific binding (α2 (non-selective)): 77%

Fc1ccc2c(c1)CCO[C@H]2[C@@H]1CCCN1 [Compound I-9, (S)-2-((R)-6-fluoroisochroman-1-yl)pyrrolidine]
α2 percent inhibition of specific binding (α2 (non-selective)): 91% | α1 percent inhibition of specific binding (α1 (non-selective)): 73%

Fc1cccc2c1CCO[C@@H]2[C@H]1CCN1 [Compound I-96, (R)-2-((S)-5-fluoroisochroman-1-yl)azetidine]
α2 percent inhibition of specific binding (α2 (non-selective)): 81% | α1 percent inhibition of specific binding (α1 (non-selective)): 81%

Fc1ccc2c(c1)CCO[C@H]2[C@@H]1CCN1 [Compound I-90, (S)-2-((R)-6-fluoroisochroman-1-yl)azetidine]
α2 percent inhibition of specific binding (α2 (non-selective)): 71% | α1 percent inhibition of specific binding (α1 (non-selective)): 64%

Fc1cccc2c1CCO[C@@H]2[C@@H]1CCN1 [Compound I-94, (S)-2-((S)-5-fluoroisochroman-1-yl)azetidine]
α1 percent inhibition of specific binding (α1 (non-selective)): 72%

Fc1ccc2c(c1)[C@H]([C@@H]1CCCN1)OCC2 [Compound I-5, (2S)-2-((R)-7-fluoroisochroman-1-yl)pyrrolidine]
α2 percent inhibition of specific binding (α2 (non-selective)): 96% | α1 percent inhibition of specific binding (α1 (non-selective)): 59%
